What was measured:
[1] = Chemical stability at 37° C., 0.05M pH 7.4 phosphate buffer (HPLC, time course of starting material depletion); format: physicochemical; conditions: 0.05m phosphate buffer, 5% DMSO, 10 mM initial conc., read-out: Chemical stability t1/2 (converted)
Protocol: (a) Chemical stability at 37° C., 0.05M pH 7.4 phosphate buffer (5% DMSO as solubilizing vehicle) was determined by following the time course of starting material depletion ([…] kinetics; 10 mM initial conc.) by HPLC analysis (stationary phase Whatman Partisphere 5 C18, 110×4.7 mm i.d., mobile phase A, pH 2.5 0.1M phosphate buffer; mobile phase B, 60:40 phase A/MeCN; UV detection at λ=254 nm;

[2] = biological target: T1, human leukocyte elastase (HLE) (Homo sapiens, UniProt P08246); test: HLE-inhibition kinetic parameters (fluorescence, release of 7-amino-4-methylcoumarin from peptide substrate); format: biochemical; conditions: 37° C., 0.027M pH 7.4 phosphate buffer, 1% DMSO, 1% MeCN, NaCl (I=0.15); for Ki: read-out: HLE-inhibition kinetic parameters: Ki^ss (apparent dissociation constant of HLE-inhibitor complex at steady state); for koff: read-out: HLE-inhibition kinetic parameters: Koff (dissociation rate); for kon: read-out: HLE-inhibition kinetic parameters: Kon (rate of formation of the HLE complex)
T1 construct: purchased Calbiochem Lot 702738
T1 sequence (P08246 30-267): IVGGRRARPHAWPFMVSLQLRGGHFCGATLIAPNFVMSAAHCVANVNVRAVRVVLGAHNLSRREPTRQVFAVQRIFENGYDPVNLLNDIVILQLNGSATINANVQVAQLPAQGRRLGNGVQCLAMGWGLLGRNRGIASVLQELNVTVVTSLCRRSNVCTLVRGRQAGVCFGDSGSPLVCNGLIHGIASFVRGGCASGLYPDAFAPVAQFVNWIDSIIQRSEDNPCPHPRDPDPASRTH
Protocol: (b) Kinetic parameters of HLE (Calbiochem. Lot 702738) were determined at 37° C., 0.027M pH 7.4 phosphate buffer, 1% DMSO, 1% MeCN, NaCl (I=0.15), by monitoring the release of 7-amino-4-methylcoumarin (fluorence detection) from N-methoxysuccinyl-alanyl-propyl-valyl-7-amido-4-methylcoumarin as the substrate, according to the equations: [formula] wherein: [P], [I], [S]=product, inhibitor, and substrate concentration
Km=Michaelis constant for the enzyme-substrate pair (independently determined under the same experimental conditions).

SMILES	half-life at 10000 µM [1]	Ki [2]	koff [2]	kon [2]
CO[C@H]1C(=O)N2C(C(=O)C(C)(C)C)=C(COC(C)=O)CS(=O)(=O)[C@H]12 [Compound 51, 3-Acetoxymethyl-4-tert-butylcarbonyl-(7α)-methoxy-3-cephem 1,1-dioxide]	19.3 h	11 nM	0.0026 s⁻¹	20000 M⁻¹ s⁻¹
CO[C@H]1C(=O)N2C(C(=O)OC(C)(C)C)=C(COC(C)=O)CS(=O)(=O)[C@H]12 [Reference]	3.2 h	18.4 nM	0.0035 s⁻¹	9000 M⁻¹ s⁻¹

— patent publication US5077286A, “Beta-lactam derivatives of the 4-acylcephem sulphone and 3-acylpenam sulphone-type” (Farmitalia Carlo Erba S.r.l., priority 1988, dated 1991)
